Experimental findings from US20220204563A1, “DELIVERY PEPTIDES AND METHODS OF USING THE SAME” (NATIONAL INSTITUTE FOR BIOTECHNOLOGY IN THE NEGEV LTD., priority 2019, published 2022) are described below.

Primed or numbered codes have the meaning given here. No end group written: not given here. TAMRA = tetramethylrhodamine fluorescent label; FITC′ = not defined here

Series [1] deals with M. rosenbergii early vitellogenic oocytes. The series is described as follows: In vitro incubation of ovary pieces with fluorophore-labelled peptides, confocal imaging of oocytes. The format is cell-based, Macrobrachium rosenbergii. Conditions: for Fluorescent intensity in oocytes compared to Vg246-253-TAMRA: ovary slices in vitro, TAMRA emission; for Distribution of TAMRA-labelled peptide in the oocyte: ovary pieces incubated with Vg-TAMRA or scVg-TAMRA separately, 6 μM, confocal; for Endocytosis into oocytes, distribution of the two fluorescent-labelled peptides: simultaneous incubation with Vg-TAMRA and control-FITC, 6 μM each. Here is the method:
(§1) Ovary pieces from in-vitro or in-vivo experiments were washed with Schneider's drosophila medium without the peptides for 5 min. Then, the pieces were torn apart on a slide in one drop of the medium to better view the individual oocytes. The slides were inspected, and images were taken by a confocal microscope FV1000 (Olympus) at ×60 magnification. The excitation laser wavelength was 561 nm for the TAMRA labelled peptides and 488 nm for FITC labelled control peptides, and the emission was obtained at […], respectively.
M. rosenbergii ovary pieces of 1-3 mm with oocytes diameter of ˜150 μm (early vitellogenic ovaries) were incubated in a sterile 24-wells plate, 2 cm^2 growth area each well (Biofil®) in a biological hood. Each piece was incubated with 250 μl Schneider's drosophila culture medium with osmolality fixed to 420 mOsm/L and supplemented with FBS (10%), PSA (final concentration: Penicillin—100 units/mL, streptomycin—0.1 mg/mL, Amphotericin B—0.25 μg/mL and insulin 10 mg/ml insulin in 25 mM HEPES). The ovary pieces were incubated either with Vg-TAMRA or scVg-TAMRA or with both Vg-TAMRA and scVg-FITC simultaneously (6 μM each). The plate was incubated at room temperature for 24 and 48 hours. To test dsRNA piggybacking, 55 pmole dsRNA was conjugated to 275 pmole either Vg-TAMRA or scVg-FITC peptides. Ovary pieces were incubated with the dsGFP-Vg-TAMRA or dsGFP-scVg-FITC conjugates and cultured as stated above.
To evaluate the endocytosis capability of oocytes with respect to the newly designed Vg-derived peptides, an in vitro experiment was performed. Vg-derived and control peptides, labeled with TAMRA fluorophore, were detected by confocal microscopy. Both peptides were detected in the vicinity of the oocyte membrane (FIG. 4). […] In order to get the highest certainty regarding the internalization specificity of the Vg-derived peptides, the Vg and control peptides were labelled with an additional fluorophore (FIGS. 4E-4H), Vg peptide was labelled with TAMRA (FIGS. 4E and 4H), while the control peptide has been labelled with FITC molecule (FIG. 4F). A similar result was obtained in this experiment showing distinct distribution of the two fluorescent-labelled peptides.
Further, a dose dependent test with respect to Vg-derived peptides penetration into oocytes using Vg descending concentrations was performed (FIG. 5). Unlike the control scrambled peptide (scVg), the Vg peptide maintained similar pattern of distribution in the oocyte throughout the descending concentrations (FIG. 5, upper row).
The inventors further examined the capability and efficacy of shorter/partial sequences derived from the peptide of the invention to being internalized into M. rosenbergii oocytes. Further, the inventors examined whether homologous peptides derived from a different decapod crustacean, e.g., Litopenaeus vannamei, would also be internalized into M. rosenbergii oocytes.
The mentioned peptides were incubated in vitro with ovary slices to evaluate their internalization. […] In contrast to that, the Vg-derived peptides were capable to enter the oocyte as they were observed beyond the follicular cells inside the oocytes (red dots, FIGS. 11B-11G). […] Moreover, both L. vannamei Vg derived peptides were capable to endocytose into M. rosenbergii oocytes (FIGS. 11F-11G).

The subject of another series is oocytes. The series is described as follows: In vivo assay: peptide injection into the hemolymph of reproductive females, confocal imaging of oocytes and gills. As to conditions: for Fluorescent emission in oocytes after injection: mixture of both peptides injected, 5 μg/gr body weight, oocytes dissected 24 h after injection. Also on record: species or system Macrobrachium rosenbergii. On the procedure:
as §1
Solution containing the culture medium, Vg-TAMRA and scVg-FITC peptides were injected (5 μg/gr body weight) into the hemolymph sinus at the base of the fifth walking leg of a M. rosenbergii reproductive females (14.3±0.4 gr, with opaque white to yellowish ovary, FIG. 2, left). For the injection, a manual micro dispenser syringe was used (Drummond®). After injection, the animals were kept at 28° C. for 24 hours in the culture facility for freshwater prawn M. rosenbergii, at Ben-Gurion University. Vg-dsEGFR or Vg-dsPAX6 conjugates (5:1 molar ratio for conjugation, 5 μg dsRNA/g body weight) were injected twice a week at the first two weeks. From the third week, the injections were performed once a week. The females were monitored daily and upon appearance of the reproductive molt, the females were released to a tank with a male for fertilization. The embryos' development on the pleopods of their mother (FIG. 2, middle) were monitored under stereoscope, and a fraction was collected for RNA extraction and subsequent quantitative PCR analysis.
To determine whether the Vg-TAMRA peptide has the capability to specifically in vivo internalize into oocytes, a mixture of the Vg-TAMRA and the control-FITC peptides were injected into the prawn circulatory system. […] To verify that the two peptides did circulate through the prawn female body, the prawn gills were dissected and examined under the confocal microscope.

The nature of series [2]: Dynamic light scattering (DLS) of dsRNA-peptide conjugates. Conditions: 700 bp dsRNA, dsRNA:peptide ratio 1:30 (FIG. 6B dots). The format is physicochemical. Here is the method:
Constant amount of dsRNA (25 pmole) solution was mixed with an increasing amount of peptide solution in an Eppendorf vial (˜1.5 mL). The total conjugation reaction volume was completed to 15 μl with DEPC treated DDW. The solutions were incubated at room temperature for 20 minutes. To evaluate peptide-dsRNA conjugation, a 1.3% agarose gel was prepared in TAE buffer. Conjugates were mixed with equal volume of loading buffer (50% glycerol and 0.5 M EDTA). Peptide-dsRNA conjugates were separated for 30 minutes at 120 V. Fluorescent emission of conjugates in gels were scanned by using a Typhoon FLA 9500 gel system (GE Healthcare®).
In order to verify whether the Vg-derived peptide was capable to piggyback and internalize a large molecule such as a dsRNA into the oocytes, a conjugation approach between the peptide and dsRNA was developed. The Vg-TAMRA and the control-FITC peptides were synthesized with a cationic poly lysine-histidine tail (KH) to allow electrostatic interactions between the peptides and the negatively charged dsRNA. The dsRNA-peptide complexes prepared at different molar ratios (peptide/dsRNA ratio: 1, 5, 10, 20 and 30) were characterized with two different assays: dynamic light scattering (DLS) and separation on agarose gel.
dsRNA of 700 bp (dsEGFR) and another one a mix of 200 and 230 bp dsRNA (dsPAX6) were prepared (FIG. 3A). […]

Consider “DKNIIKPK-TAMRA (DKNIIKPK-{TAMRA}) [Vg237-244-TAMRA]”, for which the “Fluorescent intensity in oocytes compared to Vg246-253-TAMRA” value in series [1] is given as “Weaker florescent intensity”.

Take “CQAPVKLIAYDKNKYEHEYRISVSGK-TAMRA (CQAPVKLIAYDKNKYEHEYRISVSGK-{TAMRA}) [scVg-TAMRA, reference compound]”: the “Distribution of TAMRA-labelled peptide in the oocyte” value in series [1] was “mainly dispersed on the outer surface of the oocyte”. The “Fluorescent signal in oocytes” value is on record as “No signal was detected” in series [1] (peptide concentration 0.75 μM), “no apparent signal” in series [1] (peptide concentration 1.5 μM), “weak fluorescent signal” in series [1] (peptide concentration 6 μM) and “weak fluorescent signal” in series [1] (peptide concentration 12 μM).

Regarding “DKNIIKPAYGSYKYVEAK-TAMRA (DKNIIKPAYGSYKYVEAK-{TAMRA}) [Vg237-253-TAMRA]”, the “Fluorescent intensity in oocytes compared to Vg246-253-TAMRA” value in series [1] is given as “Weaker florescent intensity”.

On to “CDKNIIKPAYGSYKYVEAHQESVLRK-TAMRA (CDKNIIKPAYGSYKYVEAHQESVLRK-{TAMRA}) [Vg-TAMRA]”, for which the “Detection of peptide in gills after injection” value with oocytes (early vitellogenic female injected simultaneously with both peptides) is listed as “can be detected in the gills”. The “Fluorescent emission in oocytes after injection” value with oocytes is “a clear 564 nm emission was seen inside the oocytes”. For the same substance, the “Fluorescence intensity in comparison to the control peptide” value in series [1] (descending concentrations 12-0.75 μM, fluorescence and overlay images) is “higher intensity of the red TAMRA emission”. In series [1], the “Distribution of TAMRA-labelled peptide in the oocyte” value was “distributed mainly at the cytosolic side of the oocyte membrane”. In addition, the “Fluorescent signal in oocytes” value in series [1] (peptide concentration 0.75 μM) is on record as “No signal was detected”; in series [1] (peptide concentration 1.5 μM) it was “clear fluorescent signal”; in series [1] (peptide concentration 6 μM), “clear fluorescent signal”; in series [1] (peptide concentration 12 μM) it was “clear fluorescent signal”. Also, in series [1], the “Endocytosis into oocytes, distribution of the two fluorescent-labelled peptides” value is “clearly observed”.

Take “Vg235-260-TAMRA: 26 amino acid VgR interacting region peptide; probably the Vg-TAMRA peptide of SEQ ID NO: 22 (CDKNIIKPAYGSYKYVEAHQESVLRK; not fully specified (C-terminus); also: TAMRA label)”: the “Fluorescent intensity in oocytes compared to Vg246-253-TAMRA” value in series [1] is recorded as “Weaker florescent intensity”.

As for “CQAPVKLIAYDKNKYEHEYRISVSGK-FITC (CQAPVKLIAYDKNKYEHEYRISVSGK-{FITC′}) [scVg-FITC, reference compound]”, in the series on oocytes (in vivo), the “Detection of peptide in gills after injection” value is “can be detected in the gills”. The “Fluorescent emission in oocytes after injection” value with oocytes is reported as “absent from oocytes”. In addition, in series [1] (ovary slices incubated with Vg-derived peptide TAMRA and scVg-FITC simultaneously), the “Internalization into M. rosenbergii oocytes” value is reported as “observed only on the outer area of the oocyte”. Besides, in series [1], the “Endocytosis into oocytes, distribution of the two fluorescent-labelled peptides” value is reported as “only on the outer surface of the membrane”.

Consider “KHKHKHKHKHKHKHKHKHCDKNIIKPAYGSYKYVEAHQESVLRK-TAMRA (KHKHKHKHKHKHKHKHKHCDKNIIKPAYGSYKYVEAHQESVLRK-{TAMRA}) [KH9-Vg]”, for which the “Particle radius (DLS)” value in series [2] is about 100 nm.
